These results are taken from PubChem BioAssay AID1259345.

The target of this assay is A2780 TERC promoter luciferase reporter, 16 h. Kind of assay: TERC promoter activity modulators, SAR follow-up, cell-based, luciferase reporter, human (AID 1259345).

Active and inactive are the calls of the source.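 Rule for the calls: active = IC50 below a set limit; inactive = the rest.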

For the molecule `Cc1nc2cc(-c3cccc(Br)c3)nn2c(C)c1CCC(=O)O`, the IC50 result is “inactive”.
As to `Cc1nc2cc(-c3ccc(C#CCO)cc3)nn2c(C)c1CCC(=O)O`, the IC50 entry is “inactive”.
